# Assay results taken from paper PMC4787783 (2015).
# Experiments:
# [1] = system: 3-WJ (RNA, junction) AGCGCAACCCC/UCGUCAGCU/GGGACGACGU; assay: fluorescence enhancement; conditions: 40 mM K+; 20 mM Tris-HCl pH 7.0; 2 µM CyT, 4 µM RNA; very weak fluorescence
# [2] = system: NRAS (RNA, G4) GGGAGGGGCGGGUCUGGG; assay: fluorescence titration, 1:1 fit; conditions: 40 mM K+; 20 mM Tris-HCl pH 7.0, 25 °C; 2 µM CyT
# [3] = system: Bulges-TB1 (RNA, G4) UUGUGGUGGGUGGGUGGGU; assay: fluorescence enhancement
# [4] = system: ssAf22 (RNA, single strand) UGAGCUUAAUUGUAUAUAUUCG; assay: fluorescence titration, 1:1 fit; conditions: 40 mM K+; 20 mM Tris-HCl pH 7.0, 25 °C; 2 µM CyT
# [5] = system: tRNA-Ala fragment (RNA, G4) GGGGGUGUAGCUCAGUGGUAGAGCGCGUGC; assay: fluorescence enhancement
# [6] = system: tRNA-Cys fragment (RNA, G4) GGGGGUAUAGCUCAGUGGUAGAGCAUUUGA; assay: fluorescence enhancement
# [7] = system: dsNC (RNA, duplex) UUGUGCUACCAGGAGUCUG/CAGACUCCUGGUAGCACAA; assay: fluorescence titration, 1:1 fit; conditions: 40 mM K+; 20 mM Tris-HCl pH 7.0, 25 °C; 2 µM CyT
# [8] = system: 4-WJ (RNA, junction) GCGC/UUUAGC/GAGGUCCU/AGAA; assay: fluorescence enhancement; conditions: 40 mM K+; 20 mM Tris-HCl pH 7.0; 2 µM CyT, 4 µM RNA; very weak fluorescence
# [9] = system: BCL-2 (RNA, G4) AGGGGGCCGUGGGGUGGGAGCUGGGG; assay: fluorescence titration, 1:1 fit; conditions: 40 mM K+; 20 mM Tris-HCl pH 7.0, 25 °C; 2 µM CyT
# [10] = system: ssAf17 (RNA, single strand) CUGAGUUGUAUAUAUUCG; assay: fluorescence titration, 1:1 fit; conditions: 40 mM K+; 20 mM Tris-HCl pH 7.0, 25 °C; 2 µM CyT
# [11] = system: TRF2 (RNA, G4) CGGGAGGGCGGGGAGGGC; assay: fluorescence titration, 1:1 fit; conditions: 40 mM K+; 20 mM Tris-HCl pH 7.0, 25 °C; 2 µM CyT
# [12] = system: Tel22-mut (RNA, single strand) AGUGUUAGUGUUAGUGUUAGUG; assay: fluorescence enhancement; conditions: 40 mM K+; 20 mM Tris-HCl pH 7.0; 2 µM CyT, 4 µM RNA; very weak fluorescence
# [13] = system: NRAS-mut (RNA, single strand) GUGAGUUGCGUGUCUGUG; assay: fluorescence enhancement; conditions: 40 mM K+; 20 mM Tris-HCl pH 7.0; 2 µM CyT, 4 µM RNA; very weak fluorescence
# [14] = system: HP18 (HP-18) (RNA, hairpin) CAGUACAGAUCUGUACUG; assay: fluorescence titration, 1:1 fit; conditions: 40 mM K+; 20 mM Tris-HCl pH 7.0, 25 °C; 2 µM CyT
# [15] = system: Spinach (RNA, aptamer) GCAGCCGGCUUGUUGAGUAGAGUGUGAGCUCCGUAACUGGUCGCGUC/GACGCGACCGAAUGAAAUGGUGAAGGACGGGUCCAGCCGGCUGC; assay: fluorescence enhancement
# [16] = system: VEGF (RNA, G4) GGAGGAGGGGGAGGAGGA; assay: fluorescence titration, 1:1 fit; conditions: 40 mM K+; 20 mM Tris-HCl pH 7.0, 25 °C; 2 µM CyT
# [17] = system: Tel22 (RNA, G4) AGGGUUAGGGUUAGGGUUAGGG; assay: fluorescence titration, 1:1 fit; conditions: 40 mM K+; 20 mM Tris-HCl pH 7.0, 25 °C; 2 µM CyT
# [18] = system: ssAf17 (RNA, single strand) CUGAGUUGUAUAUAUUCG; assay: fluorescence enhancement; conditions: about 100-fold enhancement
# [19] = system: HP18 (HP-18) (RNA, hairpin) CAGUACAGAUCUGUACUG; assay: fluorescence enhancement; conditions: about 330-fold enhancement
# [20] = system: Tel22 (RNA, G4) AGGGUUAGGGUUAGGGUUAGGG; assay: fluorescence enhancement; conditions: about 290-fold enhancement
# [21] = system: VEGF (RNA, G4) GGAGGAGGGGGAGGAGGA; assay: fluorescence enhancement; conditions: about 200-fold enhancement
smiles,measurement,setting,value
CC(=Cc1sc2ccc3ccccc3c2[n+]1CCCS(=O)(=O)[O-])C=C1Sc2ccc3ccccc3c2N1CCCS(=O)(=O)O,binding,[1],weak
same,binding constant,[2],(3.49 ± 0.77) × 10^5 M^-1
same,binding,"[3]; 40 mM K+, 20 mM Tris-HCl pH 7.0, 2 µM CyT, 4 µM RNA, about 1800-fold enhancement",yes
same,binding constant,[4],(4.03 ± 0.36) × 10^4 M^-1
same,binding,"[5]; 40 mM K+, 20 mM Tris-HCl pH 7.0, 2 µM CyT, 4 µM RNA, about 200-fold enhancement",yes
same,binding,"[6]; 40 mM K+, 20 mM Tris-HCl pH 7.0, 2 µM CyT, 4 µM RNA, about 205-fold enhancement",yes
same,binding constant,[7],(2.42 ± 0.25) × 10^4 M^-1
same,binding,[8],weak
same,binding constant,[9],(1.94 ± 0.29) × 10^5 M^-1
same,binding constant,[10],(4.40 ± 0.38) × 10^4 M^-1
same,binding constant,[11],(2.81 ± 0.63) × 10^5 M^-1
same,binding,[12],weak
same,binding,[13],weak
same,binding constant,[14],(2.89 ± 0.28) × 10^4 M^-1
same,binding,"[15]; 40 mM K+, 20 mM Tris-HCl pH 7.0, 2 µM CyT, 4 µM RNA, about 327-fold enhancement",yes
same,binding constant,[16],(1.44 ± 0.29) × 10^5 M^-1
same,binding constant,[17],(1.17 ± 0.37) × 10^5 M^-1
CN1C(=Cc2cc[n+](C)c3ccccc23)Sc2ccccc21,binding,[18],yes
same,binding,[3]; about 570-fold enhancement,yes
same,binding,[19],yes
same,binding,[5]; about 230-fold enhancement,yes
same,binding,[6]; about 150-fold enhancement,yes
same,binding,[20],yes
same,binding,[21],yes
same,binding,[15]; about 200-fold enhancement,yes
